From patent US5939437A, “CCK and gastrin receptor ligands” (James Black Foundation Limited, priority 1994, dated 1999)

Assays:
Gastrin = target: T1, Gastrin (Rattus norvegicus, UniProt P30553); test: gastrin antagonist activity in an immature rat stomach assay (pentagastrin-stimulated acid secretion, isolated stomach); conditions: cumulative pentagastrin dose-response curves, 60 min after drug; for Kb: read-out: Gastrin pKB (converted)
T1 construct: The stomach was excised and flushed with ca. 1 ml unbuffered physiological saline solution; from tissue; host or cells: isolated whole stomach of immature rats (33-50 g, ca. 21 days old)
T1 sequence (P30553 1-452): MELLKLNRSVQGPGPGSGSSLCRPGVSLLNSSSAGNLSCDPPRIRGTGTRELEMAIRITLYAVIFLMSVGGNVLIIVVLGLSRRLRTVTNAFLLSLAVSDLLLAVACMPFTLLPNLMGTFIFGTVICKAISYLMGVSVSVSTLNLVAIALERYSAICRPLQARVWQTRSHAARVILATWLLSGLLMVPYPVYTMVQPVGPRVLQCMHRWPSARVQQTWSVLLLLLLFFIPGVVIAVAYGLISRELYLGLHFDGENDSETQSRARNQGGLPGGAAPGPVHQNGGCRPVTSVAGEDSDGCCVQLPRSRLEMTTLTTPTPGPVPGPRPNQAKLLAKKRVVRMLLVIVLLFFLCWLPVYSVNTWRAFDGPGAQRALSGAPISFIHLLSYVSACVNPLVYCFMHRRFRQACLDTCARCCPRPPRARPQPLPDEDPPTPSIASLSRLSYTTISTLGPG
Description: The compounds of the examples were also tested for gastrin antagonist activity in an immature rat stomach assay. The procedure was follows:
The oesophagus of immature rats (33-50 g, ca. 21 days old) was ligated at the level of the cardiac sphincter and the duodenal sphincter was cannulated. The stomach was excised and flushed with ca. 1 ml unbuffered physiological saline solution. The fundus was punctured and cannulated. A further 4-5 ml of unbuffered solution was flushed through the stomach to ensure the preparation was not leaking. The stomach was lowered into a jacketed organ bath containing 40 ml of buffered solution containing 3×10^-8 M5methylfurmethide, maintained at 37° and gassed vigorously with 95% O2 /5% CO2. The stomach was continuously perfused at a rate of 1 ml min^-1 with unbuffered solution gassed with 100% O2 with the perfusate passing over an internally referenced pH-electrode fixed 12 cm above the stomach.
After 120 min of stabilisation the drugs were added directly to the serosal solution in the organ bath and after a further 60 min cumulative pentagastrin dose-response curves were started. Changes in acid secretion were monitored and the curves analysed according to Black et. al., Br. J. Pharmacol., 1985, 86, 581.

CCKA = target: T2, CCKA (Cavia porcellus, UniProt Q63931); test: CCKA binding assay (guinea-pig pancreas membranes); conditions: [125I]-CCK8(S) 200 pM, 0.375 μM PD134,308 present, 150 minutes at 21±3° C.; for Ki: read-out: CCKA pKi (converted)
T2 construct: The pancreatata were homogenised in 40 ml ice-cold HEPES buffer; from tissue; host or cells: pancreas membranes of male Dunkin Hartley guinea-pigs
T2 sequence (Q63931 1-430): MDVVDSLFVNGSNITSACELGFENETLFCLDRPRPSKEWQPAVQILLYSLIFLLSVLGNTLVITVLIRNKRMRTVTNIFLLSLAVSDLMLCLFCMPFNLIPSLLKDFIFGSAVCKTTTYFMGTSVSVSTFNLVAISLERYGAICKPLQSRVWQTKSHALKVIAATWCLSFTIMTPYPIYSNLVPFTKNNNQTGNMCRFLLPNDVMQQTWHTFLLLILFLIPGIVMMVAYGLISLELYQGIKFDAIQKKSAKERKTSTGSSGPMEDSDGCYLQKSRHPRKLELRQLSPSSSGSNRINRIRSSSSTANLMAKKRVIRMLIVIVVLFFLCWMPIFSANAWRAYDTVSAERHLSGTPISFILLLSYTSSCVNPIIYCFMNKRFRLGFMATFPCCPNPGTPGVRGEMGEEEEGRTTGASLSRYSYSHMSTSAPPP
Description: The compounds of the examples were also tested in a CCKA binding assay as follows:
The pancreatata were removed from male guinea-pigs (200-300 g; Dunkin Hartley) and placed in ice-cold HEPES buffer (pH 7.2@21 ±3° C.). The pancreatata were homogenised in 40 ml ice-cold HEPES buffer using a polytron (Brinkman, PT10, setting 10) 4×1 second. The homogenate was centrifuged at 39,800 g for 15 min at 4° C. The supernatant was discarded and the pellet re-suspended using a Teflon-in-glass homogeniser in 20 volumes of fresh buffer and re-centrifuged as above. The final pellet was re-suspended using a Teflon-in-glass homogeniser to a tissue concentration of 1 mg.ml^-1 (original wet weight), and filtered through 500 μm pore-size Nytex mesh.
The membranes (400 μl; containing 0.375 μM PD134,308) are incubated for 150 minutes at 21±3° C. in a final volume of 0.5 ml with HEPES buffer containing [^125 I]-CCK8 (S) (50 μl; 200 pM) and competing compound. Total and non-specific binding of [^125 I]-CCK^8 (S) are defined using 50 μl of buffer and 50 μl of 100 nM L-364,718respectively. The assay is terminated by rapid filtration through pre-soaked Whatman GF/B filters using a Brandell Cell Harvester. The filters were washed (3×3 ml) with ice-cold 50 mM Tris HCl (pH 7.4 at 4° C. and bound radioactivity is determined by counting (1 min) in a gamma counter.

CCKB = target: T3, CCKB (Mus musculus, UniProt P56481); test: radioligand binding assay at the CCKB (CCK8 [sic]) receptor in mouse cortical membranes; conditions: [125I]-CCK8S 200 pM, 150 min at 21±3° C.; for Ki: read-out: CCKB pKi (converted)
T3 construct: The cortex was dissected, weighed and homogenised in 40 ml ice-cold buffer; from tissue; host or cells: cerebral cortex membranes of male CD1 mice (Charles River)
T3 sequence (P56481 1-453): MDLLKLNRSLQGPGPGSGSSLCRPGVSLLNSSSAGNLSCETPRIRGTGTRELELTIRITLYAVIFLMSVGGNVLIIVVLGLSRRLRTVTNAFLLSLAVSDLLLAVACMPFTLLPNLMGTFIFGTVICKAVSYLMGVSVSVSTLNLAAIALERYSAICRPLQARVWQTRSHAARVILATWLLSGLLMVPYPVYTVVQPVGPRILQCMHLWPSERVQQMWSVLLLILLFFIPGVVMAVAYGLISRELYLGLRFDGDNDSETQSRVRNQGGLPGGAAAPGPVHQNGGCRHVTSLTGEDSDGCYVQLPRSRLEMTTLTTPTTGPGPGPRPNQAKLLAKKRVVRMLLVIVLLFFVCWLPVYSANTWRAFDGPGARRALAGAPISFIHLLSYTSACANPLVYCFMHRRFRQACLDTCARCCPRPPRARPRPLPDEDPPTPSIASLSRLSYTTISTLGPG
Description: The compounds of the examples were tested for binding at the CCK8 receptor in mouse cortical membranes by means of a radioligand binding assay. The procedure was as follows: The whole brains from male mice (CD1 22-25 g; Charles River) were removed and placed in ice-cold buffer (pH7.2@21±3° C.) of the following composition (mM); 10 HEPES, 130 NaCl, 4.7 KCl, 5 MgCl2, 1 EDTA and containing 0.25 g.1^-1 bacitracin. The cortex was dissected, weighed and homogenised in 40 ml ice-cold buffer using a Teflon-in-glass homogeniser. The homogenate was centrifuged at 39,800 g for 20 min at 4° C., the supernatant discarded and the pellet resuspended by homogenisation in fresh buffer. The homogenate was recentrifuged (39,800 g; 20 min@4° C.) and the final pellet was resuspended in HEPES buffer to give a tissue concentration of 2 mg.ml^-1 (original wet weight). The membranes ([…]) were incubated for 150 min at 21±3° C. in a final volume of 0.5 ml with HEPES buffer containing [^25 I]-CCK8S (0.05 ml; 200 pM NEN 2200 Ci.mmol^-1) and competing compound. Total and non-specific binding of [^125 I]-CCK8S were defined using 0.05 ml of buffer and 0.05 ml of […] L-365,260, respectively. The assay was terminated by rapid filtration through pre-soaked Whatman GF/B 35 filters using a Brandell Cell harvester. The filters were washed (3×3 ml) with ice-cold 5 mM Tris-HCl (pH7.4@4° C.) and bound radioactivity determined by counting (1 min.) in a gamma-counter.

SMILES	Gastrin pKB (Gastrin)	CCKA pKi (CCKA)	CCKB pKi (CCKB)	Kb (Gastrin) [nM]	Ki (CCKA) [nM]	Ki (CCKB) [nM]
O=C(O)c1cc(NC(=O)[C@H](Cc2ccccc2F)NC(=O)c2ccccc2C(=O)NCC23CC4CC(CC(C4)C2)C3)cc(C(=O)O)c1 [Example 4]	7.7	5.3	7.0	–	–	–
O=C(O)c1cc(NC(=O)[C@H](Cc2ccccc2)NC(=O)c2ccc([N+](=O)[O-])cc2C(=O)NCC23CC4CC(CC(C4)C2)C3)cc(C(=O)O)c1 [Example 14, 1-(1S-(3,5-dicarboxyphenylamino-carbonyl)-2-phenylethylaminocarbonyl)-2-(1-adamantanemethyl-aminocarbonyl)-4-nitrobenzene]	–	–	–	100	3160	501
Nc1ccc(C(=O)N[C@@H](Cc2ccccc2)C(=O)Nc2cc(C(=O)O)cc(C(=O)O)c2)c(C(=O)NCC23CC4CC(CC(C4)C2)C3)c1 [Example 16, 1-(1S-(3,5-dicarboxyphenylamino-carbonyl)-2-phenylethylaminocarbonyl)-2-(1-adamantanemethyl-25 aminocarbonyl)-4-aminobenzene]	–	–	–	63.1	3980	200
O=C(O)c1cc(NC(=O)[C@H](Cc2ccccc2)NC(=O)c2ncccc2C(=O)NCC23CC4CC(CC(C4)C2)C3)cc(C(=O)O)c1 [Example 10, 2-(1S-(3,5-dicarboxyphenylamino-carbonyl)-2-phenylethylaminocarbonyl)-3-(1-adamantanemethylamino-carbonyl)pyridine]	–	–	–	39.8	2000	794
O=C(O)c1cc(NC(=O)[C@H](Cc2ccccc2)NC(=O)c2ccccc2C(=O)NCC23CC4CC(CC(C4)C2)C3)cc(C(=O)O)c1 [Example 1, (1S-(3,5-dicarboxyphenylaminocarbonyl)-2-phenylethylaminocarbonyl)-2-(1-adamantanemethylaminocarbonyl)-benzene]	–	5.5	–	3.98	–	79.4
O=C(O)c1cc(NC(=O)[C@@H](Cc2ccccc2)NC(=O)c2ccccc2C(=O)NCC23CC4CC(CC(C4)C2)C3)cc(C(=O)O)c1 [Example 3, (1R-(3,5-dicarboxyphenylaminocarbonyl)-2-phenylethylaminocarbonyl)-2-(1-adamantanemethylaminocarbonyl)-benzene]	–	–	–	15.8	7940	398
O=C(O)c1cc(NC(=O)[C@H](Cc2ccccc2)NC(=O)c2cccc3c2C(=O)N(CC24CC5CC(CC(C5)C2)C4)C3)cc(C(=O)O)c1 [Example 26, 7-(1S-(3,5-dicarboxyphenylamino-carbonyl)-2-phenylethylaminocarbonyl)-2-(1-adamantanemethyl)indol-1-one]	–	–	–	63.1	3160	100
O=C(O)c1cc(NC(=O)[C@H](Cc2ccccc2)NC(=O)c2ccccc2C(=O)NCC2CCCCCC2)cc(C(=O)O)c1 [Example 7, (1R-(3,5-dicarboxyphenylaminocarbonyl)-2-phenylethylaminocarbonyl)-2-(cycloheptanemethylaminocarbonyl)-benzene]	6.3	5.9	6.5	–	–	–
COc1ccc(C(=O)NCC23CC4CC(CC(C4)C2)C3)c(C(=O)N[C@@H](Cc2ccccc2)C(=O)Nc2cc(C(=O)O)cc(C(=O)O)c2)c1 [Example 19, 1-(1S-(3,5-dicarboxyphenylamino-carbonyl)-2-phenylethylaminocarbonyl)-2-(1-adamantanemethyl-aminocarbonyl)-5-methoxybenzene]	–	–	–	12.6	2000	158
Nc1ccc(C(=O)NCC23CC4CC(CC(C4)C2)C3)c(C(=O)N[C@@H](Cc2ccccc2)C(=O)Nc2cc(C(=O)O)cc(C(=O)O)c2)c1 [Example 17, 1-(1S-(3,5-dicarboxyphenylamino-carbonyl)-2-phenylethylaminocarbonyl)-2-(1-adamantanemethyl-aminocarbonyl)-5-aminobenzene]	–	–	–	20	12600	50.1
O=C(O)c1cc(NC(=O)[C@H](Cc2ccc(O)cc2)NC(=O)c2ccccc2C(=O)NCC23CC4CC(CC(C4)C2)C3)cc(C(=O)O)c1 [Example 2, (1S-(3,5-dicarboxyphenylaminocarbonyl)-2-(4-hydroxyphenyl)-ethylaminocarbonyl)-2-(1-adamantanemethyl-aminocarbonyl)-benzene]	–	–	–	25.1	1580	1260
